Measurements: patent US20240360137A1 (Novartis AG, priority 2023, published 2024)

Assays:
Test in all cases: CDKi biochemical assay (TR-FRET, phosphorylation of S780 on RB1 peptide)
CDK2/CyclinE1 = CDK2/CyclinE1 (Homo sapiens, UniProt P24941); conditions: CDK2/CyclinE1 100 pM, 1 mM ATP, 60 min at 25° C.
Experimental: (§1) Biochemical assays measured the inhibitory effects of compounds in this disclosure on the enzymatic activity of CDK enzyme in complex with Cyclin protein partner by phosphorylation of Ser-780 (S780) on retinoblastoma protein peptide (RB1) in the presence of 1 mM adenosime-5-triphosphate (ATP) and varying concentration of test compound in 20 mM 2-[4-(2-hydroxyethyl)paperazin-1-yl] ethanesulfonic acid (HEPES), pH 7.5, 10 mM MgCl2, 1 mM dithiothreitol (DTT), 0.01% bovine serum albumin (BSA), 0.005% Tween 20. Total Reaction volume of 10 μL proceeded for 60 minutes at room temperature (25° C.) and were quenched with 5 μL of 200 mM 2′,2″,2′″-(Ethane-1,2-diyldinitrilo)tetraacetic acid (EDTA) pH 8.0 before addition of 5 μL detection solution containing 100 nM fluorophore conjugate streptavidin allophycocyanin (SA-APC), 2 nM Europium labelled Anti-p-RB(S780)-K (Perkin Elmer, 64CUSKAY), 50 mM HEPES, pH 7.5, 400 mM potassium fluoride (KF), 0.1% BSA, and 0.01% Tween-20. Phosphorylation of S780 on RB1 peptide (His-MBP-RB1[773-924]-SEQ ID NO. 9) was detected by TR-FRET after 3 hour incubation with detection solution. Percent phosphorylation activity was plotted against log concentration of compound to generate an apparent ICSO. The following CDK enzyme in complex with different cyclin proteins and protein peptide substrate were used in these assays: • CDK1/CyclinB1, Avi-tag, 10 pM used in the assay • CDK2/CyclinE1, Avi-tag, 100 pM used in the assay • CDK4/cyclinD1, Avi-tag, 20 pM used in the assay • CDK6/cyclinD3, Avi-tag, 10 pM used in the assay • His-MBP-RB1[773-924], Avi-tag, 200 nM used in the assay
(§2) The avi-tag is a C-terminal fusion on the CDK1/2/4/6 sequence in each of these two-protein complexes. The known avi-tag sequence, […] (SEQ ID NO. 10), is a substrate for E. coli biotin ligase BirA, which covalently attaches a biotin molecule to the e-amino group of the lysine in that sequence. The avi-tag is attached with an 8 amino-acid linker sequence GGSGGGGS (SEQ ID NO. 11), resulting in the full C-terminal fusion
(§3) Recombinant proteins were generated as N-terminal fusions of 9× His tag—E. coli Maltose Binding Protein (MBP), with or without a C-terminal Avi-tag.^1 CDK2 and His-MBP-RB1[773-924]-c-avi were expressed in E. coli while the remainder were expressed in Sf21 insect cells. Genes were synthesized commercially (GeneArt and Twist Bioscience) using codon frequencies appropriate to the respective organisms and proprietary codon optimization strategies, and inserted into pET 24 (E. coli) or pDEST8 (insect) vectors already containing the 9× His-MBP tag using standard methods of PCR and Gibson Assembly.^2 E. coli expression was performed by auto-induction overnight at 18 or 21 C. For insect cell expression, bacmids and viruses were created,^3 then used to synchronously infect Sf21 insect cells with harvest at 40-48 hrs., per standard protocols.^4
(§4) For CDK2/Cyclin E and CDK1/Cyclin B, the CDK and Cyclin proteins were expressed separately, lysed by sonication and clarified by centrifugation. The fusion proteins were each separately purified by immobilized metal ion affinity chromatography (IMAC) (5 mL HisTrap, Cytiva) and Superdex 200 26/60 (Cytiva) size-exclusion and complexed in vitro (1-3 hrs incubation at room temperature) prior to tag cleavage by recombinant his-tagged Tobacco Etch Virus protease or his-tagged Human rhinovirus 3C protease, as appropriate. The cleaved complex is further purified by Superdex 75 26/60 (Cytiva) size-exclusion followed by reverse-IMAC, in which the complex is in the column flow-through and residual His-MBP and his-tagged proteases are retained. The final complex is concentrated as desired by centrifugal concentration (Amicon Ultra 10,000 Da MWCO 15 mL concentrators, Millipore).
For E. coli expressed CDK2 and His-MBP-RB1[773-924]-c-avi, the proteins were biotinylated in vitro after the first IMAC step.^1
(§5) For the is-MBP-RB1[773-924]-c-avi, the protein was lysed by sonication and clarified by centrifugation. […]

CDK1/CyclinB1 = CDK1/CyclinB1 (Homo sapiens, UniProt P06493); conditions: CDK1/CyclinB1 10 pM, 1 mM ATP, 60 min at 25° C.
Experimental: as §1, §2, §3, §4, §5

CDK4/cyclinD1 = CDK4/cyclinD1 (Homo sapiens, UniProt P11802); conditions: CDK4/cyclinD1 20 pM, 1 mM ATP, 60 min at 25° C.
Experimental: as §1, §2, §3
(§6) For CDK4/Cyclin D1 and CDK6/Cyclin D3, the complexes were expressed by simultaneous co-infection of insect cells by three separate viruses including one expressing untagged E. coli BirA. The expression media is supplemented with 50 uM d-biotin. The resulting protein complexes purified similarly. After lysis and clarification, the complex is purified by IMAC, Superdex 200 26/60 size exclusion, tag cleavage by human rhinovirus 3C protease, Superdex 75 26/60 size exclusion and reverse IMAC. BirA is typically not retained on the first IMAC, and excess CDK or Cyclin monomer is separated on the Superdex 200 size exclusion. Cleaved His-MBP and remaining monomer are removed by the Superdex 75 size exclusion and the reverse IMAC step. Final concentration by centrifugal concentrators as described above.
as §5

CDK6/cyclinD3 = CDK6/cyclinD3 (Homo sapiens, UniProt Q00534); conditions: CDK6/cyclinD3 10 pM, 1 mM ATP, 60 min at 25° C.
Experimental: as §1, §2, §3, §6, §5

Compound | IC50 (CDK2/CyclinE1) [nM] | IC50 (CDK1/CyclinB1) [nM] | IC50 (CDK4/cyclinD1) [nM] | IC50 (CDK6/cyclinD3) [µM]
O=C1N([C@@H]2CCC[C@@H](O)C2)c2nc(Nc3c[nH]nc3C3CCOC3)ncc2C12CC2 (stereo partly drawn) [Example 8, 7′-((1R,3R)-3-hydroxycyclohexyl)-2′-((3-(tetrahydrofuran-3-yl)-1H-pyrazol-4-yl)amino)spiro[cyclopropane-1,5′-pyrrolo[2,3-d]pyrimidin]-6′(7′H)-one] | 234 | ≥ 10000 | ≥ 10000 | ≥ 10
O=C1N([C@@H]2CCC[C@@H](O)C2)c2nc(Nc3c[nH]nc3OCC3(F)CC3)ncc2C12CC2 [Example 45, 2′-((3-((1-fluorocyclopropyl)methoxy)-1H-pyrazol-4-yl)amino)-7′-((1R,3R)-3-hydroxycyclohexyl)spiro[cyclopropane-1,5′-pyrrolo[2,3-d]pyrimidin]-6′(7′H)-one] | 11 | 770 | 1230 | 3.5
COc1n[nH]cc1Nc1ncc2c(n1)N([C@@H]1CCCC[C@@H](O)C1)C(=O)C21CC1 [Example 18] | 114 | ≥ 10000 | ≥ 10000 | –
Cc1n[nH]cc1Nc1ncc2c(n1)N([C@H]1C[C@H](O)CC(C)(C)C1)C(=O)C21CC1 [Example 7, 7′-((1R,5R)-5-hydroxy-3,3-dimethylcyclohexyl)-2′-((3-methyl-1H-pyrazol-4-yl)amino)spiro[cyclopropane-1,5′-pyrrolo[2,3-d]pyrimidin]-6′(7′H)-one] | 136 | 5990 | 3860 | 2.21
O=C1N([C@@H]2CCC[C@@H](O)C2)c2nc(Nc3c[nH]nc3-c3cnn4c3CCC4)ncc2C12CC2 [Example 47, 2′-((3-(5,6-dihydro-4H-pyrrolo[1,2-b]pyrazol-3-yl)-1H-pyrazol-4-yl)amino)-7′-((1R,3R)-3-hydroxycyclohexyl)spiro[cyclopropane-1,5′-pyrrolo[2,3-d]pyrimidin]-6′(7′H)-one] | 27 | ≥ 10000 | 6380 | 7.55
O=C1N([C@@H]2CCC[C@@H](O)C2)c2nc(Nc3c[nH]nc3O[C@H]3COC[C@H]3F)ncc2C12CC2 [Example 27, 2′-((3-(((3S,4R)-4-fluorotetrahydrofuran-3-yl)oxy)-1H-pyrazol-4-yl)amino)-7′-((1R,3R)-3-hydroxycyclohexyl)spiro[cyclopropane-1,5′-pyrrolo[2,3-d]pyrimidin]-6′(7′H)-one] | 11 | 1920 | 1280 | 3.18
O=C1N([C@@H]2CCC[C@@H](O)C2)c2nc(Nc3c[nH]nc3-c3cnn(C(F)F)c3)ncc2C12CC2 [Example 34, 2′-((1′-(difluoromethyl)-1H,1′H-[3,4′-bipyrazol]-4-yl)amino)-7′-((1R,3R)-3-hydroxycyclohexyl)spiro[cyclopropane-1,5′-pyrrolo[2,3-d]pyrimidin]-6′(7′H)-one] | 10 | 2310 | 3310 | 3.31
O=C1N([C@@H]2CCC[C@@H](O)C2)c2nc(Nc3c[nH]nc3OCC(F)F)ncc2C12CC2 [Example 41, 2′-((3-(2,2-difluoroethoxy)-1H-pyrazol-4-yl)amino)-7′-((1R,3R)-3-hydroxycyclohexyl)spiro[cyclopropane-1,5′-pyrrolo[2,3-d]pyrimidin]-6′(7′H)-one] | 5 | 730 | 2680 | 5.09
O=C1N([C@@H]2CCC[C@@H](O)C2)c2nc(Nc3c[nH]nc3O[C@H]3CC3(F)F)ncc2C12CC2 [Example 69] | 6 | 800 | 2610 | 6.03
O=C1N([C@@H]2CCC[C@@H](O)C2)c2nc(Nc3c[nH]nc3OC[C@H]3COC[C@H]3F)ncc2C12CC2 [Example 75, 2′-((3-((-4-fluorotetrahydrofuran-3-yl)methoxy)-1H-pyrazol-4-yl)amino)-7′-((1R,3R)-3-hydroxycyclohexyl)spiro[cyclopropane-1,5′-pyrrolo[2,3-d]pyrimidin]-6′(7′H)-one] | 72 | 9160 | ≥ 10000 | ≥ 10
O=C1N([C@@H]2CCC[C@@H](O)C2)c2nc(Nc3c[nH]nc3-c3ccccn3)ncc2C12CC2 [Example 60, 7′-((1R,3R)-3-hydroxycyclohexyl)-2′-((3-(pyridin-2-yl)-1H-pyrazol-4-yl)amino)spiro[cyclopropane-1,5′-pyrrolo[2,3-d]pyrimidin]-6′(7′H)-one] | 162 | ≥ 10000 | ≥ 10000 | ≥ 10
O=C1N([C@@H]2CCC[C@@H](O)C2)c2nc(Nc3c[nH]nc3C(F)F)ncc2C12CC2 [Example 3, 2′-((3-(difluoromethyl)-1H-pyrazol-4-yl)amino)-7′-((1R,3R)-3-hydroxycyclohexyl)spiro[cyclopropane-1,5′-pyrrolo[2,3-d]pyrimidin]-6′(7′H)-one] | 7 | 820 | 2740 | 3.76
Cn1cc(Nc2ncc3c(n2)N([C@@H]2CCC[C@@H](O)C2)C(=O)C32CC2)cn1 [Example 1, 7′-((1R,3R)-3-hydroxycyclohexyl)-2′-((1-methyl-1H-pyrazol-4-yl)amino)spiro[cyclopropane-1,5′-pyrrolo[2,3-d]pyrimidin]-6′(7′H)-one] | 38 | 1540 | 400 | 0.6
Cn1ncc(-c2n[nH]cc2Nc2ncc3c(n2)N([C@@H]2CCC[C@@H](O)C2)C(=O)C32CC2)c1C(F)(F)F [Example 84, 7′-((1R,3R)-3-hydroxycyclohexyl)-2′-((1′-methyl-5′-(trifluoromethyl)-1H,1′H-[3,4′-bipyrazol]-4-yl)amino)spiro[cyclopropane-1,5′-pyrrolo[2,3-d]pyrimidin]-6′(7′H)-one] | 88 | ≥ 10000 | ≥ 10000 | ≥ 10
CSc1n[nH]cc1Nc1ncc2c(n1)N([C@@H]1CCC[C@@H](O)C1)C(=O)C21CC1 [Example 52, 7′-((1R,3R)-3-hydroxycyclohexyl)-2′-((3-(methylthio)-1H-pyrazol-4-yl)amino)spiro[cyclopropane-1,5′-pyrrolo[2,3-d]pyrimidin]-6′(7′H)-one] | 31 | 5320 | – | ≥ 10
